Among the data in patent US6150385A, “1,3,4-thiadiazoles useful for the treatment of CMV infections” (Pharmacia & Upjohn Company, priority 1999, dated 2000) are inhibition values, retold here.

What is called inhibition is how much of the control response was suppressed.

Structures are written as SMILES.

The target in the test is T1, HCMV polymerase (Human cytomegalovirus, UniProt P08546).
T1 construct: made in house; host or cells: SF-9 insect cells infected with recombinant baculovirus
T1 sequence (P08546 whole entry): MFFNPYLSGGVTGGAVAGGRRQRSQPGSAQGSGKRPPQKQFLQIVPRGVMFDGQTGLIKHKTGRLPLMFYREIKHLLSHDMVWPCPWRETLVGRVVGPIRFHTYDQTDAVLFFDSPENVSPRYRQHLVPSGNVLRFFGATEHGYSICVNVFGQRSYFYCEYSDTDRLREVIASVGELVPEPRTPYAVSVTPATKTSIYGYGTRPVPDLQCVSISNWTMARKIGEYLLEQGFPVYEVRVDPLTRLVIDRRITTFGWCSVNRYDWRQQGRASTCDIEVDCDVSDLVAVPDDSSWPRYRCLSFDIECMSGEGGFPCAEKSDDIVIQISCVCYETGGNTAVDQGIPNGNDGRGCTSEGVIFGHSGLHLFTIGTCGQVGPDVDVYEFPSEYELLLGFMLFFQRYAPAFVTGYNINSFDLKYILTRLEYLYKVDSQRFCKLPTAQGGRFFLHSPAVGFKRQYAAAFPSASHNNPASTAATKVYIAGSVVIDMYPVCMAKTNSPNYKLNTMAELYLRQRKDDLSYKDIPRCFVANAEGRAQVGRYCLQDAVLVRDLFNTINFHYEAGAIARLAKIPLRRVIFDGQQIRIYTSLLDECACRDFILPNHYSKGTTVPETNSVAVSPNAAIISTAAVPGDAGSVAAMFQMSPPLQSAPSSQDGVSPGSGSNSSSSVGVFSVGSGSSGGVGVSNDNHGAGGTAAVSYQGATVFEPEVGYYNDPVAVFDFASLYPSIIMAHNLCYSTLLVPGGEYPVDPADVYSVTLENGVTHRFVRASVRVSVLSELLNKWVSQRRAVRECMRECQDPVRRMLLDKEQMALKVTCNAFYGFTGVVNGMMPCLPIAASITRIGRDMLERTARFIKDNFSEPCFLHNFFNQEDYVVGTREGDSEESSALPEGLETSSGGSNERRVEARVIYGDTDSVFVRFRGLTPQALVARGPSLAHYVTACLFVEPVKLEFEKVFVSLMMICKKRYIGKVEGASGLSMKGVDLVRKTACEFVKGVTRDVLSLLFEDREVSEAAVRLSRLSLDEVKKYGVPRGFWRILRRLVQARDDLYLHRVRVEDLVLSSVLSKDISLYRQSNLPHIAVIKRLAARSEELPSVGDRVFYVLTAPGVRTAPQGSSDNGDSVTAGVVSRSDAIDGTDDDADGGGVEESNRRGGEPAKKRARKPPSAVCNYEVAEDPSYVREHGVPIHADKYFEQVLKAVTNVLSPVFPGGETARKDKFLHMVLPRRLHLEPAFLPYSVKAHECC
Put plainly: HCMV polymerase assay (scintillation proximity assay). The test is classed as biochemical. Conditions: percentage of inhibition at 25 μM concentration in CMV polymerase assay. The gist of the method: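 Values are percent inhibition at 25 μM, measured by scintillation proximity after capture of biotinylated poly(dA)-oligo(dT) (6 nM) extended with 90 nM 3H-dTTP. Recombinant SF-9-derived enzyme reacted 30 min at 25 or 37 °C in HEPES pH 7.5/KCl/MgCl2/BSA buffer, ±2 mM CHAPS, before EDTA termination.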
On the technique in general: Scintillation proximity formats need no separation of bound from free tracer.
With `COc1ccccc1C(=O)Nc1nnc(NC[C@@H]2CCC3CC2C3(C)C)s1` (stereo partly drawn) [compound 22, N-[5-({[(2R)-6,6-dimethylbicyclo[3.1.1]hept-2-yl]methyl}amino)-1,3,4-thiadiazol-2-yl]-2-methoxybenzamide], the inhibition at 25 µM was 97.2%.

As to `CCOc1ccc2ccccc2c1C(=O)Nc1nnc(NCC(c2ccccc2)c2ccccc2)s1` [compound 55, N-{5-[(2,2-diphenylethyl)amino]-1,3,4-thiadiazol-2-yl}-2-ethoxy-1-naphthamide], 25 µM produced 77.6% inhibition.

As to `O=C(Nc1nnc(NC2CCCCCC2)s1)c1cc2ccccc2s1` [compound 256, N-[5-(cycloheptylamino)-1,3,4-thiadiazol-2-yl]-1-benzothiophene-2-carboxamide], at 25 µM the inhibition was 39.8%. The same measure for `O=C(Nc1nnc(NC2CCCc3ccccc32)s1)c1cccc([N+](=O)[O-])c1` (centres unmarked) [compound 347, 3-nitro-N-[5-(1,2,3,4-tetrahydro-1-naphthalenylamino)-1,3,4-thiadiazol-2-yl]benzamide]: 30.6%; for `O=C(Nc1nnc(NCCNc2ccccc2)s1)c1cccc([N+](=O)[O-])c1` [compound 291, N-{5-[(2-anilinoethyl)amino]-1,3,4-thiadiazol-2-yl}-3-nitrobenzamide]: 35.7%; for `CCCCCCCC/C=C/CCCCCCCC(=O)Nc1nnc(NCc2cccc3ccccc23)s1` [compound 119, (E)-N-{5-[(1-naphthylmethyl)amino]-1,3,4-thiadiazol-2-yl}-9-octadecenamide]: 60.6%. On to `CCCCCCCC/C=C/CCCCCCCC(=O)Nc1nnc(NCc2ccc3c(c2)OCO3)s1` [compound 53, (E)-N-{5-[(1,3-benzodioxol-5-ylmethyl)amino]-1,3,4-thiadiazol-2-yl}-9-octadecenamide], for which at 25 µM the inhibition was 77.9%.

Consider `O=C(Nc1nnc(NCCc2c[nH]c3ccccc23)s1)c1cc2ccccc2s1` [compound 269, N-(5-{[2-(1H-indol-3-yl)ethyl]amino}-1,3,4-thiadiazol-2-yl)-1-benzothiophene-2-carboxamide], for which the inhibition at 25 µM worked out at 38.5%. The molecule `O=C(Nc1nnc(NCCCNC2CCCCC2)s1)c1cc(F)cc(F)c1` [compound 275, N-(5-{[3-(cyclohexylamino)propyl]amino]-1,3,4-thiadiazol-2-yl)-3,5-difluorobenzamide] registered an inhibition at 25 µM of 37.9%. For `O=C(Nc1nnc(NCc2cccs2)s1)c1cc2ccccc2s1` [compound 237, N-{5-[(2-thienylmethyl)amino]-1,3,4-thiadiazol-2-yl}-1-benzothiophene-2-carboxamide], the inhibition at 25 µM came out at 41.5%. `CC(C)c1cc(C(C)C)c(C(=O)Nc2nnc(NCCCN3CCCC3=O)s2)c(C(C)C)c1` [compound 381, 2,4,6-triisopropyl-N-(5-{[3-(2-oxo-1-pyrrolidinyl)propyl]amino}-1,3,4-thiadiazol-2-yl)benzamide] had an inhibition at 25 µM of 27.4%. In turn, `O=C(Nc1nnc(NCCCNC2CCCCC2)s1)c1ccc(F)cc1F` [compound 160, N-(5-{[3-(cyclohexylamino)propyl]amino}-1,3,4-thiadiazol-2-yl)-2,4-difluorobenzamide] yielded an inhibition at 25 µM of 52.6%. Molecule `O=C(Nc1nnc(NCc2ccc(Cl)c(Cl)c2)s1)c1c(Cl)cccc1Cl` [compound 73, 2,6-dichloro-N-{5-[(3,4-dichlorobenzyl)amino]-1,3,4-thiadiazol-2-yl}benzamide] had an inhibition at 25 µM of 69.1%. `O=C(Nc1nnc(NCCCn2ccnc2)s1)c1ccc(Cl)c(Cl)c1` [compound 202, 3,4-dichloro-N-(5-{[3-(1H-imidazol-1-yl)propyl]amino}-1,3,4-thiadiazol-2-yl)benzamide] registered an inhibition at 25 µM of 45%. `O=C(Nc1nnc(NCC(c2ccccc2)c2ccccc2)s1)c1ccc([N+](=O)[O-])o1` [compound 306, N-{5-[(2,2-diphenylethyl)amino]-1,3,4-thiadiazol-2-yl}-5-nitro-2-furamide] gave an inhibition at 25 µM of 34.4%. Then `O=C(Nc1nnc(NC2CCc3ccccc32)s1)c1c(Cl)cccc1Cl` (centres unmarked) [compound 115, 2,6-dichloro-N-[5-(2,3-dihydro-1H-inden-1-ylamino)-1,3,4-thiadiazol-2-yl]benzamide], with 62%. `NS(=O)(=O)c1ccc(CCNc2nnc(NC(=O)c3ccc(I)cc3)s2)cc1` [compound 68, N-(5-{[4-(aminosulfonyl)phenthyl]amino}-1,3,4-thiadiazol-2-yl)-4-iodobenzamide] gave an inhibition at 25 µM of 71.1%. In turn, `O=C(/C=C/c1ccccc1Cl)Nc1nnc(NCCc2ccccc2)s1` [compound 210, (E)-3-(2-chlorophenyl)-N-[5-(phenethylamino)-1,3,4-thiadiazol-2-yl]-2-propenamide] showed an inhibition at 25 µM of 44.6%.

For the molecule `O=C(Nc1nnc(NCCCN2CCCC2=O)s1)c1ccc([N+](=O)[O-])o1` [compound 296, 5-nitro-N-(5-{[3-(2-oxo-1-pyrrolidinyl)propyl]amino}-1,3,4-thiadiazol-2-yl)-2-furamide], the inhibition at 25 µM is 35.1%.

With `O=C(Nc1nnc(NCc2ccc(Cl)c(Cl)c2)s1)c1ccc(F)cc1F` [compound 416, N-{5-[(3,4-dichlorobenzyl)amino]-1,3,4-thiadiazol-2-yl}-2,4-difluorobenzamide], the inhibition at 25 µM turned out to be 24.5%. Then `CCCCCCCC/C=C/CCCCCCCC(=O)Nc1nnc(NC[C@@H]2CCC3CC2C3(C)C)s1` (stereo partly drawn) [compound 166, (E)-N-[5-({[(2R)-6,6-dimethylbicyclo[3.1.1]hept-2-yl]methyl}amino)-1,3,4-thiadiazol-2-yl]-9-octadecenamide], with 51.1%. The same measure for `O=C(Nc1nnc(NCc2ccco2)s1)c1c(Cl)cccc1Cl` [compound 174, 2,6-dichloro-N-{5-[(2-furylmethyl)amino]-1,3,4-thiadiazol-2-yl}benzamide]: 49.5%. The molecule `O=C(Nc1nnc(NCC(c2ccccc2)c2ccccc2)s1)c1cc2ccccc2s1` [compound 187, N-{5-[(2,2-diphenylethyl)amino]-1,3,4-thiadiazol-2-yl}-1-benzothiophene-2-carboxamide] registered an inhibition at 25 µM of 47.2%. Then `O=C(Nc1nnc(NCc2ccco2)s1)c1cc2ccccc2s1` [compound 349, N-{5-[(2-furylmethyl)amino]-1,3,4-thiadiazol-2-yl}-1-benzothiophene-2-carboxamide], with 30.3%.

`CCOc1ccc2ccccc2c1C(=O)Nc1nnc(NCC2CCCCC2)s1` [compound 431, N-{5-[(cyclohexylmethyl)amino]-1,3,4-thiadiazol-2-yl}-2-ethoxy-1-naphthamide]: 25 µM produced 23.1% inhibition. `O=C(Nc1nnc(NCCCCc2ccccc2)s1)c1c(Cl)cccc1Cl` [compound 225, 2,6-dichloro-N-{5-[(4-phenylbutyl)amino]-1,3,4-thiadiazol-2-yl}benzamide] yielded an inhibition at 25 µM of 42.9%. In turn, `O=C(/C=C/c1ccccc1)Nc1nnc(NCc2ccc(F)cc2)s1` [compound 326, (E)-N-{5-[(4-fluorobenzyl)amino]-1,3,4-thiadiazol-2-yl}-3-phenyl-2-propenamide] returned an inhibition at 25 µM of 32.7%. The molecule `CCCCCCCC/C=C/CCCCCCCC(=O)Nc1nnc(NCCCN2CCN(C)CC2)s1` [compound 14, (E)-N-(5-{[3-(4-methylpiperazino)propyl]amino}-1,3,4-thiadiazol-2-yl)-9-octadecenamide] showed an inhibition at 25 µM of 99%. The same measure for `O=C(/C=C/c1ccccc1Cl)Nc1nnc(NC2CC2)s1` [compound 353, (E)-3-(2-chlorophenyl)-N-[5-(cyclopropylamino)-1,3,4-thiadiazol-2-yl]-2-propenamide]: 30.2%. The same measure for `CC(C)c1cc(C(C)C)c(C(=O)Nc2nnc(NCC(c3ccccc3)c3ccccc3)s2)c(C(C)C)c1` [compound 176, N-{5-[(2,2-diphenylethyl)amino]-1,3,4-thiadiazol-2-yl}-2,4,6-triisopropylbenzamide]: 49.4%; for `O=C(Nc1nnc(NC2CCN(Cc3ccccc3)CC2)s1)c1ccc2c(c1)C(=O)OC2=O` [compound 85, N-{5-[(1-benzyl-4-piperidinyl)amino]-1,3,4-thiadiazol-2-yl}-1,3-dioxo-1,3-dihydro-2-benzofuran-5-carboxamide]: 67.3%. `O=C(Nc1nnc(NCCNc2ccccc2)s1)c1ccc(Br)cc1` [compound 434, N-{5-[(2-anilioethyl)amino]-1,3,4-thiadiazol-2-yl}-4-bromobenzamide] returned an inhibition at 25 µM of 22.8%. On to `N#Cc1ccc(C(=O)Nc2nnc(NCCc3c[nH]c4ccccc34)s2)cc1` [compound 82, 4-cyano-N-(5-{[2-(1H-indol-3-yl)ethyl]amino}-1,3,4-thiadiazol-2-yl)benzamide], for which the inhibition at 25 µM was 67.7%.

`O=C(Nc1nnc(NCCCN2CCCC2=O)s1)c1ccc(Br)cc1` [compound 419, 4-bromo-N-(5-{[3-(2-oxo-1-pyrrolidinyl)propyl]amino}-1,3,4-thiadiazol-2-yl)benzamide]: the inhibition at 25 µM is 24.3%.

`CCCCCCCCCCCNc1nnc(NC(=O)CCCCCl)s1` [compound 106, 5-chloro-N-[5-(undecylamino)-1,3,4-thiadiazol-2-yl]pentanamide] returned an inhibition at 25 µM of 64.2%.

Take `CCSCCNc1nnc(NC(=O)/C=C/c2ccccc2)s1` [compound 211, (E)-N-(5-{[2-(ethylsulfanyl)ethyl]amino}-1,3,4-thiadiazol-2-yl)-3-phenyl-2-propenamide]: 25 µM produced 44.3% inhibition. Take `CCCCCCCC/C=C/CCCCCCCC(=O)Nc1nnc(NCCCn2ccnc2)s1` [compound 378, (E)-N-(5-{[3-(1H-imidazol-1-yl)propyl]amino}-1,3,4-thiadiazol-2-yl)-9-octadecenamide]: the inhibition at 25 µM was 27.8%. Then `CCOc1ccc2ccccc2c1C(=O)Nc1nnc(NCC(C)(C)C)s1` [compound 233, 2-ethoxy-N-[5-(neopentylamino)-1,3,4-thiadiazol-2-yl]-1-naphthamide], with 42.1%.
